Legend:
Type in all cases: cell-based
[1] = target: GPR55 mutant N171Q (Gα13) (Homo sapiens, UniProt Q9Y2T6, N171Q); test: BRET² G protein dissociation assay, GPR55 N171Q with Gα13
Description: (§1) To validate the functionality of the GPR55 cryo-EM construct, we conducted bioluminescence resonance energy transfer 2 (BRET²)-based G protein dissociation assays[46],[47] using an engineered heterotrimeric G13 protein. The N-terminal GFP fusion of the receptor was additionally modified with a G67A mutation to disrupt fluorescence properties. We employed human embryonic kidney (HEK) cells overexpressing wt or mutant GPR55 together with Gβ3, Gγ9-GFP, and Gα13 tagged with Renilla luciferase 8 (Rluc8).
(§2) G protein dissociation assays were performed according to the original protocols of the TRUPATH BRET² assay[47],[87] but with subtle modifications as previously described[61],[88],[89]. All reagents and cells were obtained from Thermo Fisher Scientific unless indicated otherwise. The coding sequences for the G protein biosensors[47] (Gα12-Rluc8, Gα13-Rluc8, wt Gβ3, and Gγ9-GFP), the wt GPR55, the construct used for cryo-EM (with GFP bearing a G67A mutation to disrupt fluorescence properties[48] for BRET² assays), GPR55 binding pocket mutants (G152^4.56F, G152^4.56W, N171^ECL2Q, N171^ECL2A, T176^5.33A, R253^6.62A), and the wt TBXA2R were codon-optimized for Homo sapiens, gene-synthesized, and sub-cloned into pcDNA^TM3.1(+) between NheI and HindIII restriction sites by GeneArt (Thermo Fisher Scientific). […] Freshly grown cells were washed with Dulbecco’s Balanced Salt Solution (DPBS, cat. #14200075) and detached using trypsin-ethylenediaminetetraacetic acid (trypsin-EDTA) (cat. #25300-062). Then, the cells were reconstituted to 500,000 cells per mL with fresh medium, and 1,000,000 cells were seeded into each well of a 6-well plate. After 3 h incubation at 37 °C and 5% CO2, adherent cells were transfected with 600 ng DNA (1:1:1:1 ratio of plasmid DNA for GPR55, wt Gβ3, Gγ9-GFP, and Gα12-Rluc8 or Gα13-Rluc8). Plasmid DNA was mixed with 1.5 µL Lipofectamine^TM 2000 (cat. #11668027) in Opti-MEM^TM medium (cat. #31985062) and incubated for 20 min. Then, the mixture was added to each well of the 6-well plate following 24 h incubation at 37 °C and 5% CO2. Transfected cells were washed with DPBS, detached using EDTA (Versene, cat. #15040066), and reconstituted into fresh medium at 500,000 cells mL^−1. From this suspension, 50,000 cells were seeded into each well of a white-bottom 96-well plate (Nunc^TM MicroWell^TM 96 wells, cat. #136101) following overnight incubation at 37 °C and 5% CO2. Then, the adherent cells were washed with assay medium [Hank’s balanced salt solution (HBSS, cat. #14065056) plus 20 mM HEPES pH 7.4 (cat. #15630056)] and finally reconstituted into 50 µL of the same medium. […] Methoxy e-Coelenterazine was used as luciferase substrate (Prolume Purple, NanoLight Technology, cat. #369), reconstituted at 1 mM in methanol and diluted to 37.5 µM with assay buffer (7.5 µM final assay concentration). The assay was started by the addition of 20 µL luciferase substrate to each well of the assay plate using a Multidrop^TM Combi reagent dispenser (Thermo Fisher Scientific), followed by 5 min incubation at room temperature. Then, 30 µL of agonist dilutions or DMSO control was added (final DMSO concentration 1.5%), followed by an additional 5 min incubation at room temperature. BRET² measurements were performed with a PHERAstar® FSX microplate reader (BMG LABTECH) using a BRET² filter (donor emission 370–450 nm, acceptor emission 500–530 nm) at the maximum fluorescence gain of 3600. BRET² ratios were calculated by dividing GFP emission signals from Rluc8 emission counts. Buffer-DMSO controls were subtracted from each data point to calculate ΔBRET² ratios.

wt GPR55 (Gα13) = wt GPR55 (Gα13) (Homo sapiens, UniProt Q9Y2T6); test: BRET² G protein dissociation assay, wt GPR55 with Gα13; conditions: for ΔBRET² ratio (Mean): GPR55-wt-G13
Description: as §1, §2

[2] = target: GPR55 cryo-EM construct (Gα13) (Homo sapiens, UniProt Q9Y2T6); test: BRET² G protein dissociation assay, GPR55 cryo-EM construct (GFP G67A) with Gα13; conditions: for BRET2 response, Mean (plotted, Fig. S4): Cryo-EM-G67A-G13
Description: as §1, §2

[3] = target: GPR55 mutant G152W (Gα13) (Homo sapiens, UniProt Q9Y2T6, G152W); test: BRET² G protein dissociation assay, GPR55 G152W with Gα13
Description: as §1, §2

[4] = target: GPR55 mutant N171A (Gα13) (Homo sapiens, UniProt Q9Y2T6, N171A); test: BRET² G protein dissociation assay, GPR55 N171A with Gα13
Description: as §1, §2

## Cc1cccc(N2CCN(C(=O)c3cc(S(=O)(=O)N(C)C)ccc3N3CCCC3)CC2)c1C [ML184, 3-[[4-(2,3-dimethylphenyl)-1-piperazinyl]carbonyl]-N,N-dimethyl-4-(1-pyrrolidinyl)benzenesulfonamide]
[1]; Concentration 300 pM
  Mean (plotted) BRET² response, GPR55-N171Q-G13: -0.001828
[1]; Concentration 1e-9 M
  Mean (plotted) BRET² response, GPR55-N171Q-G13: -0.002418
[1]; Concentration 3e-9 M
  Mean (plotted) BRET² response, GPR55-N171Q-G13: -0.001477
[1]; Concentration 1e-8 M
  Mean (plotted) BRET² response, GPR55-N171Q-G13: -0.0001092
[1]; Concentration 3e-8 M
  Mean (plotted) BRET² response, GPR55-N171Q-G13: -0.001125
[1]; Concentration 1e-7 M
  Mean (plotted) BRET² response, GPR55-N171Q-G13: -0.006817
[1]; Concentration 3e-7 M
  Mean (plotted) BRET² response, GPR55-N171Q-G13: -0.01585
[1]; Concentration 1e-6 M
  Mean (plotted) BRET² response, GPR55-N171Q-G13: -0.03451
[1]; Concentration 3e-6 M
  Mean (plotted) BRET² response, GPR55-N171Q-G13: -0.05647
[1]; Concentration 1e-5 M
  Mean (plotted) BRET² response, GPR55-N171Q-G13: -0.07313
[1]; Concentration 3e-5 M
  Mean (plotted) BRET² response, GPR55-N171Q-G13: -0.08032
[1]; GPR55 N171Q, Gα13
  EC50: 1410 nM
[1]; GPR55 N171Q, Gα13, 30 µM ligand, same normalization, read-out: Efficacy ± SEM (%)
  Emax at 30 µM: 76 ± 2%
[1]; N171Q mutant
  reduction of potency compared to wt GPR55: 32 fold
Wt GPR55 (Gα13); 3e-10 M
  ΔBRET² ratio (Mean): -0.004943
Wt GPR55 (Gα13); 1e-9 M
  ΔBRET² ratio (Mean): -0.002883
Wt GPR55 (Gα13); 3e-9 M
  ΔBRET² ratio (Mean): -0.008889
Wt GPR55 (Gα13); 1e-8 M
  ΔBRET² ratio (Mean): -0.01695
Wt GPR55 (Gα13); 3e-8 M
  ΔBRET² ratio (Mean): -0.02473
Wt GPR55 (Gα13); 1e-7 M
  ΔBRET² ratio (Mean): -0.03149
Wt GPR55 (Gα13); 3e-7 M
  ΔBRET² ratio (Mean): -0.03626
Wt GPR55 (Gα13); 1e-6 M
  ΔBRET² ratio (Mean): -0.04111
Wt GPR55 (Gα13); 3e-6 M
  ΔBRET² ratio (Mean): -0.04451
Wt GPR55 (Gα13); 1e-5 M
  ΔBRET² ratio (Mean): -0.04913
Wt GPR55 (Gα13); 3e-5 M
  ΔBRET² ratio (Mean): -0.04899
Wt GPR55 (Gα13); wt GPR55, Gα13
  G protein activation at GPR55-transfected cells (in words): induced Gα13 activation in a concentration-dependent manner
Wt GPR55 (Gα13); wt GPR55, Gα13, 30 µM ligand, 100% = wt GPR55 plus G13-biosensor at 30 µM ML184, 0% = mock plus G13-biosensor, read-out: Efficacy ± SEM (%)
  Emax at 30 µM: 100 ± 2%
Wt GPR55 (Gα13); wt GPR55, Gα13, read-out: EC50 (Gα13 activation)
  EC50: 44.7 nM
[2]; Cryo-EM construct (G67A), Gα13
  EC50: 18.2 nM
[2]; Cryo-EM construct (G67A), Gα13, 30 µM ligand, same normalization, read-out: Efficacy ± SEM (%)
  Emax at 30 µM: 86 ± 2%
[2]; concentration 300 pM
  BRET2 response, Mean (plotted, Fig. S4): 0.0007
[2]; concentration 1e-9 M
  BRET2 response, Mean (plotted, Fig. S4): -0.00467
[2]; concentration 3e-9 M
  BRET2 response, Mean (plotted, Fig. S4): -0.01143
[2]; concentration 1e-8 M
  BRET2 response, Mean (plotted, Fig. S4): -0.02458
[2]; concentration 3e-8 M
  BRET2 response, Mean (plotted, Fig. S4): -0.03698
[2]; concentration 1e-7 M
  BRET2 response, Mean (plotted, Fig. S4): -0.04541
[2]; concentration 3e-7 M
  BRET2 response, Mean (plotted, Fig. S4): -0.05211
[2]; concentration 1e-6 M
  BRET2 response, Mean (plotted, Fig. S4): -0.05461
[2]; concentration 3e-6 M
  BRET2 response, Mean (plotted, Fig. S4): -0.05649
[2]; concentration 1e-5 M
  BRET2 response, Mean (plotted, Fig. S4): -0.05972
[2]; concentration 3e-5 M
  BRET2 response, Mean (plotted, Fig. S4): -0.06146
[3]; Concentration 300 pM
  Mean (plotted) BRET² response, GPR55-G152W-G13: -0.02434
[3]; Concentration 1e-9 M
  Mean (plotted) BRET² response, GPR55-G152W-G13: -0.04124
[3]; Concentration 3e-9 M
  Mean (plotted) BRET² response, GPR55-G152W-G13: -0.05947
[3]; Concentration 1e-8 M
  Mean (plotted) BRET² response, GPR55-G152W-G13: -0.07141
[3]; Concentration 3e-8 M
  Mean (plotted) BRET² response, GPR55-G152W-G13: -0.07973
[3]; Concentration 1e-7 M
  Mean (plotted) BRET² response, GPR55-G152W-G13: -0.08343
[3]; Concentration 3e-7 M
  Mean (plotted) BRET² response, GPR55-G152W-G13: -0.08701
[3]; Concentration 1e-6 M
  Mean (plotted) BRET² response, GPR55-G152W-G13: -0.08751
[3]; Concentration 3e-6 M
  Mean (plotted) BRET² response, GPR55-G152W-G13: -0.0887
[3]; Concentration 1e-5 M
  Mean (plotted) BRET² response, GPR55-G152W-G13: -0.09176
[3]; Concentration 3e-5 M
  Mean (plotted) BRET² response, GPR55-G152W-G13: -0.09408
[3]; G152W mutant
  increase of potency compared to wt GPR55: 34 fold
[3]; GPR55 G152W, Gα13, 30 µM ligand, same normalization, read-out: Efficacy ± SEM (%)
  Emax at 30 µM: 107 ± 1%
[3]; GPR55 G152W, Gα13, calculated by extrapolating ΔBRET² ratios for concentrations <0.3 nM
  EC50: 1.35 nM
[4]; Concentration 300 pM
  Mean (plotted) BRET² response, GPR55-N171A-G13: 0.002752
[4]; Concentration 1e-9 M
  Mean (plotted) BRET² response, GPR55-N171A-G13: 0.003846
[4]; Concentration 3e-9 M
  Mean (plotted) BRET² response, GPR55-N171A-G13: -0.0003036
[4]; Concentration 1e-8 M
  Mean (plotted) BRET² response, GPR55-N171A-G13: 0.001966
[4]; Concentration 3e-8 M
  Mean (plotted) BRET² response, GPR55-N171A-G13: -0.0002448
[4]; Concentration 1e-7 M
  Mean (plotted) BRET² response, GPR55-N171A-G13: -0.005366
[4]; Concentration 3e-7 M
  Mean (plotted) BRET² response, GPR55-N171A-G13: -0.01646
[4]; Concentration 1e-6 M
  Mean (plotted) BRET² response, GPR55-N171A-G13: -0.04126
[4]; Concentration 3e-6 M
  Mean (plotted) BRET² response, GPR55-N171A-G13: -0.05866
[4]; Concentration 1e-5 M
  Mean (plotted) BRET² response, GPR55-N171A-G13: -0.07333
[4]; Concentration 3e-5 M
  Mean (plotted) BRET² response, GPR55-N171A-G13: -0.07936
[4]; GPR55 N171A, Gα13
  EC50: 1050 nM
[4]; GPR55 N171A, Gα13, 30 µM ligand, same normalization, read-out: Efficacy ± SEM (%)
  Emax at 30 µM: 73 ± 3%
[4]; N171A mutant
  reduction of potency compared to wt GPR55: 24 fold
